From PubChem BioAssay (NCI)
Where “and” joins values, the source holds several entries; their conditions need not be identical. Equal values may be shown once.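 Grown in 96-well plates, cells were treated for 48 hours with each compound at five concentrations. Insufficient inhibition: endpoint recorded as highest concentration tested. GI50 is the concentration that inhibits growth by half. TGI denotes the concentration required for complete inhibition of growth.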

How the values were obtained:
Test in all cases: DTP human tumour cell line panel, 48 h
ACHN renal = test system: ACHN renal
NCI-H522 lung = test system: NCI-H522 lung
OVCAR-5 ovarian = test system: OVCAR-5 ovarian
PC-3 prostate = test system: PC-3 prostate
SK-MEL-2 melanoma = test system: SK-MEL-2 melanoma
SK-MEL-28 melanoma = test system: SK-MEL-28 melanoma
SK-OV-3 ovarian = test system: SK-OV-3 ovarian
SNB-19 CNS = test system: SNB-19 CNS
UACC-257 melanoma = test system: UACC-257 melanoma
SR leukemia = test system: SR leukemia

Row | Structure (SMILES) | GI50 (ACHN renal) [µM] | TGI (ACHN renal) | GI50 (NCI-H522 lung) [µM] | TGI (NCI-H522 lung) | GI50 (OVCAR-5 ovarian) [µM] | TGI (OVCAR-5 ovarian) | GI50 (PC-3 prostate) [µM] | TGI (PC-3 prostate) [µM] | GI50 (SK-MEL-2 melanoma) [µM] | TGI (SK-MEL-2 melanoma) | GI50 (SK-MEL-28 melanoma) [µM] | TGI (SK-MEL-28 melanoma) | GI50 (SK-OV-3 ovarian) [µM] | TGI (SK-OV-3 ovarian) | GI50 (SNB-19 CNS) [µM] | TGI (SNB-19 CNS) | GI50 (UACC-257 melanoma) [µM] | TGI (UACC-257 melanoma) | TGI (SR leukemia) [µM] | GI50 (SR leukemia) [µM]
1 | O=c1cccc(C#Cc2ccccc2)o1 | 7.7 | 21.5 µM | 4.06 | > 40.4 µM | 6.35 | 16.1 µM | 3.41 | > 40.4 | 4.71 | > 33.9 µM | 15 | 40.2 µM | 16.2 | > 44.8 µM | 10.5 | 37.6 µM | 7.74 | 22.4 µM | – | –
2 | N/N=C1\c2ccccc2C2/C(=N\N)c3ccccc3C12 (stereo not given) | – | > 100 µM | – | > 100 µM | – | > 100 µM | – | – | – | > 100 µM | – | > 100 µM | – | > 100 µM | – | > 100 µM | – | > 100 µM | – | –
3 | CCOc1ccccc1NC(=O)CCc1nnc2s/c(=C\CCc3ccccc3)c(=O)n12 | – | > 100 µM | – | > 100 µM | – | > 100 µM | – | – | – | > 100 µM | – | > 100 µM | – | > 100 µM | – | > 100 µM | – | > 100 µM | > 100 | –
4 | Cc1ccc(NS(=O)(=O)c2cc(C(C)(C)C)ccc2OCCOCCOCCOc2ccc(C(C)(C)C)cc2S(=O)(=O)Nc2ccc(C)cc2)cc1 | – | > 100 µM | – | – | – | > 100 µM | – | – | – | > 100 µM | – | > 100 µM | – | > 100 µM | – | > 100 µM | – | > 100 µM | – | –
5 | O=S(=O)(NC(=S)Nc1ccccc1)c1ccc(N2N=C3c4ccccc4CC3C2c2cccs2)cc1 (stereo not given) | 26.4 | 67.7 µM | 32.8 | > 100 µM | 17.9 | 41.1 µM | 22.9 | 54.4 | 59.9 | > 100 µM | 53.8 | > 100 µM | 49.5 | > 100 µM | 33.8 | > 100 µM | 29.1 | 79.9 µM | – | –
6 | CC(=O)OCC1OC(OC2CC3C(C)(C)C(OC(C)=O)CC[C@]3(C)C3CCC45CC4(CC[C@H]5C(C)CC(O)C4OC4(C)C)[C@]23C)C(O)C(O)C1O (stereo not given in full) | 3.44 | 7.28 µM and 11.7 µM | 1.91 | 5.33 µM and 3.91 µM | 2.02 | 2.52 µM and 4.46 µM | – | – | 4.29 | 6.17 µM and 14.6 µM | 2.99 | 7.11 µM and 9.32 µM | 3.22 | 8.7 µM and 11.2 µM | 4.97 | 12.4 µM and 17.6 µM | 4.1 | 7.28 µM and 14.7 µM | 8.58 | –
7 | O=C([O-])c1ccc2c(c1)-c1nc-2nc2[n-]c(nc3nc(nc4[n-]c(n1)c1ccc(C(=O)[O-])cc41)-c1cc(C(=O)[O-])ccc1-3)c1ccc(C(=O)[O-])cc21.[Fe+2] | > 50 | > 50 µM | > 50 | > 50 µM | > 50 | > 50 µM | – | – | > 50 | > 50 µM | > 50 | > 50 µM | > 50 | > 50 µM | > 50 | > 50 µM | > 50 | > 50 µM | > 50 | 19
8 | CC1CCCC(C(O)CC2CC(=O)N(c3ccccc3)C(=O)C2)C1=O (stereo not given) | – | > 100 µM | – | > 100 µM | – | > 100 µM | – | – | – | – | – | > 100 µM | – | > 100 µM | – | > 100 µM | – | > 100 µM | > 100 | –
9 | O=C(O)CCC1COc2ccccc2O1 (stereo not given) | – | > 10 µM | – | > 10 µM | – | > 10 µM | – | > 10 | – | > 10 µM | – | > 10 µM | – | > 10 µM | – | > 10 µM | – | > 10 µM | – | –
10 | CN(C)c1ccc(/C=C2\CNC/C(=C\c3ccc(N(C)C)cc3)C2=O)cc1 | – | 54 µM | – | – | – | > 100 µM | – | – | – | – | – | 42 µM | – | > 100 µM | – | – | – | > 100 µM | 82.8 | –
11 | NC1=NC(c2ccccc2)N=C(Nc2ccccc2)N1 (stereo not given) | > 100 | > 100 µM | – | – | > 100 | > 100 µM | > 100 | > 100 | > 100 | > 100 µM | > 100 | > 100 µM | > 100 | > 100 µM | > 100 | > 100 µM | > 100 | > 100 µM | – | –
12 | N#C/C(=C/c1cccnc1)C(=O)c1ccccc1 | – | > 100 µM | – | > 100 µM | – | > 100 µM | – | – | – | > 100 µM | – | > 100 µM | – | > 100 µM | – | > 100 µM | – | > 100 µM | > 100 | –
13 | COc1ccc(NC(=O)C(=O)NNC(=O)c2sc(NNC(C)=O)nc2C)c([N+](=O)[O-])c1 | – | > 100 µM | – | > 100 µM | – | > 100 µM | – | – | – | > 100 µM | – | > 100 µM | – | > 100 µM | – | > 100 µM | – | > 100 µM | > 100 | –
14 | CCC(=O)OC1CCn2c1nc1c2C(=O)C(C)=C(N2CC2)C1=O (stereo not given) | 0.0195 | 0.0491 µM and 0.411 µM | 0.0159 | 0.0404 µM and 0.0899 µM | 0.0743 | 0.589 µM and 0.229 µM | – | 0.306 | 0.038 | 0.1 µM and 0.117 µM | 0.0368 | 0.318 µM and 0.215 µM | 0.0407 | 0.255 µM and 0.283 µM | 0.0441 | 1.16 µM and 0.697 µM | 0.0261 | 0.0629 µM and 0.152 µM | – | –
15 | CCC(C(=O)[O-])C(=O)[O-].CCC(C(=O)[O-])C(=O)[O-].N.N.NCCCCCN.[Pt+4].[Pt+4] | 72.6 | > 100 µM | > 100 | > 100 µM | > 100 | > 100 µM | – | – | > 100 | > 100 µM | > 100 | > 100 µM | > 100 | > 100 µM | > 100 | > 100 µM | > 100 | > 100 µM | – | –
16 | NC(=O)c1csc(C2C=CC(CO)O2)n1 (stereo not given) | – | > 100 µM | – | > 100 µM | – | > 100 µM | – | – | – | > 100 µM | – | > 100 µM | – | > 100 µM | – | > 100 µM | – | > 100 µM | – | –
17 | C=C(CN(CC(=C)C(=O)c1ccccc1)C(C)(C)C)C(=O)c1ccccc1 | – | 21.3 µM | – | 29.4 µM | – | 34.3 µM | – | – | – | 35.3 µM | – | 36.8 µM | – | 34.4 µM | – | > 59.9 µM | – | 32.6 µM | > 21 | –
18 | COc1cccc(/C=C/C(=O)c2ccc(Cl)cc2Cl)c1OC | 14.3 | 28 µM | – | – | 17.1 | 30.9 µM | 4.32 | 17.1 | 4.58 | 17.4 µM | 14.2 | 27.4 µM | 15.4 | 28.7 µM | 4.15 | 14.9 µM | 11.2 | 23.2 µM | 9.67 | 2.28
